Data: ChEMBL document CHEMBL1133317, “The solid phase synthesis of tetrahydroisoquinolines having cdc25B inhibitory activity” (Bioorg Med Chem Lett, 2000)

These molecules were tested against T1, M-phase inducer phosphatase 2 (Homo sapiens) (UniProt P30305) (assay: Inhibitory activity against Cell division cycle 25B at 100 uM).
T1 sequence (whole entry): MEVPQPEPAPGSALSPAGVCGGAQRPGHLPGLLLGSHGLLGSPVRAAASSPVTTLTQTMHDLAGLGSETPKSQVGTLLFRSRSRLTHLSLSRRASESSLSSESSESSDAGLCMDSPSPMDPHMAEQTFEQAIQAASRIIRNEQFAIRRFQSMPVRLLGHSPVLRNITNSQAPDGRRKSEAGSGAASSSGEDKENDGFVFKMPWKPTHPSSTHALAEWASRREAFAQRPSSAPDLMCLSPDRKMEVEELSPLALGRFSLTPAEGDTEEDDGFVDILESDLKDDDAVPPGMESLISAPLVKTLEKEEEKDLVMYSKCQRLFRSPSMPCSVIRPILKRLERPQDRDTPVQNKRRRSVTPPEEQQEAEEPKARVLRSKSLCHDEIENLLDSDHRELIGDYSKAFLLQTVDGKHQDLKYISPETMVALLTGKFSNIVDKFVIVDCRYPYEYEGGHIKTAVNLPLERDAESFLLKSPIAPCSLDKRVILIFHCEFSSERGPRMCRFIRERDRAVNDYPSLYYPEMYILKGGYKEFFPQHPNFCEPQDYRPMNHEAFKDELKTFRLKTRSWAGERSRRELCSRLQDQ

Question: How did the inhibition turn out when `O=C(O)[C@@H]1Cc2cc(I)c(OCc3cccc(C(F)(F)F)c3)c(I)c2CN1C(=O)/C=C/c1ccc(Cl)cc1` was run?
Answer: 22%

Question: With `COc1cccc(COc2c(I)cc3c(c2I)CN(C(=O)/C=C/c2ccccc2C(F)(F)F)[C@H](C(=O)O)C3)c1` as the molecule, how does the inhibition read?
Answer: 28%

Question: `N#C/C(=C\c1ccccc1)C(=O)N1Cc2c(cc(I)c(O)c2I)C[C@H]1C(=O)O` was tested. Which inhibition did it give?
Answer: 12%

Question: `C/C(=C\c1ccccc1)C(=O)N1Cc2c(cc(I)c(OCC(=O)OCc3ccccc3)c2I)C[C@H]1C(=O)O` was tested. Which inhibition did it give?
Answer: 24%

Question: `C/C(=C\c1ccccc1)C(=O)N1Cc2c(cc(I)c(OCCCCl)c2I)C[C@H]1C(=O)O` was tested. Which inhibition did it give?
Answer: 12%

Question: Which inhibition does the source give for `N#C/C(=C\c1ccccc1)C(=O)N1Cc2c(cc(I)c(OCC(=O)OCc3ccccc3)c2I)C[C@H]1C(=O)O` here?
Answer: 36%

Question: With `COc1cccc(COc2c(I)cc3c(c2I)CN(C(=O)/C=C/c2cc(OC)c(OC)c(OC)c2)[C@H](C(=O)O)C3)c1` as the molecule, how does the inhibition read?
Answer: 25%
